Like-named read-outs stand apart in the source and are kept apart here.
What was measured:
[1] = system: NIKS organotypic cultures; assay: IL-1α secretion by NIKS organotypic cultures after topical irritant (ELISA); assay type: cell-based, human; conditions: 24 hr at 37° C.
Description: (§1) Solutions of SDS (0.1%, 0.2%, and 0.5%) were topically applied to air-exposed NIKS organotypic cultures and incubated for 24 hr at 37° C. After 24 hr, the media underneath the cultures was assayed for IL-1α protein using a Quantikine IL-1α ELISA kit (R&D Systems, Minneapolis, Minn.) and cultures were incubated with MTS reagent (Promega Corp., Madison, Wis.) to determine cell viability. Media from untreated cultures contained 25 pg/ml IL-1α, whereas the concentration of IL-1α in cultures treated with 0.1%, 0.2% or 0.5% SDS was 290, 375 and 275 pg/ml respectively.

[2] = system: NIKS organotypic cultures; assay: MTS cell viability of irritant-treated NIKS organotypic cultures; assay type: cell-based, human; conditions: 0.5% SDS, 24 hr
Description: as §1
These values correspond well with published IL-1α responses in SDS-exposed skin equivalents (Perkins et al, Toxicological Sciences, 48:218 [1999]).

skin equivalents = conditions: irritant-treated skin equivalents; 0.2% SDS, 0.005% calcipotriol, 0.025% trans-retinoic acid; cited from earlier work
[3] = system: in vitro skin equivalent cultures; conditions: substance added to in vitro cultures, cited from earlier work
[4] = system: IL-8 promoter sequences between −1472 and +19 in tracheobronchial epithelial cells; conditions: cited from earlier work

Molecule: CCCCCCCCCCCCOS(=O)(=O)[O-].[Na+] [SDS]
- concentration of IL-1α in media ([1]; 0.1% SDS applied topically): 290 pg/mL
- concentration of IL-1α in media ([1]; 0.2% SDS applied topically): 375 pg/mL
- concentration of IL-1α in media ([1]; 0.5% SDS applied topically): 275 pg/mL
- cell viability (MTS assay) [2]: decreased cell viability
- expression and secretion of the pro-inflammatory cytokines IL-1α and IL-8 (skin equivalents): induce expression and secretion

Molecule: O=C1O[C@H]([C@@H](O)CO)C(O)=C1O [Vitamin C]
- Lipid Composition [3]: Major
- Lipid Composition ([3]; listed as vitamin C): improved the lipid profile

Molecule: C=C1/C(=C\C=C2/CCC[C@]3(C)[C@@H]([C@H](C)/C=C/[C@@H](O)C4CC4)CC[C@@H]23)C[C@@H](O)C[C@@H]1O [calcipotriol]
- expression and secretion of the pro-inflammatory cytokines IL-1α and IL-8 (skin equivalents): induce expression and secretion

Molecule: CC1=C(/C=C/C(C)=C/C=C/C(C)=C/C(=O)O)C(C)(C)CCC1 [trans-retinoic acid]
- expression and secretion of the pro-inflammatory cytokines IL-1α and IL-8 (skin equivalents): induce expression and secretion
- induction of reporter gene containing IL-8 promoter sequences [4]: induced

Molecule: EGF: epidermal growth factor (NSDSECPLSHDGYCLHDGVCMYIEALDKYACNCVVGYIGERCQYRDLKWWELR; Epidermal growth factor; UniProt P01133 971-1023, looked up)
- Lipid Composition [3]: High triglycerides

Molecule: Vitamin E
- Lipid Composition [3]: No effect
